Values after ≈ are worked out from the molar mass of the structure shown.
Experiment: Solubility test (shaken 30 min to saturation, content measured by HPLC)
Assay type: physicochemical
Settings: shaken for 30min to saturation; for piceatannol 3'-O-glucoside solubility, 0.9% aqueous solution of Sodium chloride: in 0.9wt% aqueous solution of sodium chloride
Experimental: Appropriate amounts of samples 1 to 4 and raw material sample were taken. Water, 0.9wt% aqueous solution of sodium chloride were added, respectively, and shaken for 30min, respectively, to dissolve the sample to saturation. The above solutions were taken and subjected to HPLC to measure the content of piceatannol 3'-O-glucoside in the solutions. Table 1. Comparison of the results of piceatannol 3'-O-glucoside solubility (mg/ml)

Compound | piceatannol 3'-O-glucoside solubility, 0.9% aqueous solution of Sodium chloride (30 min) | solubility at 0.5 h (water, in water, read-out: piceatannol 3'-O-glucoside solubility, Water) | piceatannol 3'-O-glucoside solubility, Water (in water, 30 min)
OC[C@H]1O[C@@H](Oc2cc(/C=C/c3cc(O)cc(O)c3)ccc2O)[C@H](O)[C@@H](O)[C@@H]1O [Sample 2, piceatannol 3'-O-glucoside] | 14.19 mg/mL |  | 
OC[C@H]1O[C@@H](Oc2cc(/C=C/c3cc(O)cc(O)c3)ccc2O)[C@H](O)[C@@H](O)[C@@H]1O [Sample 3, piceatannol 3'-O-glucoside] |  | 15.2 mg/mL (≈ 37.5 mM) | 

The remaining lines, values ahead:

piceatannol 3'-O-glucoside solubility, 0.9% aqueous solution of Sodium chloride (30 min) | solubility at 0.5 h (water, in water, read-out: piceatannol 3'-O-glucoside solubility, Water) | piceatannol 3'-O-glucoside solubility, Water (in water, 30 min) | Compound
14.36 mg/mL |  |  | OC[C@H]1O[C@@H](Oc2cc(/C=C/c3cc(O)cc(O)c3)ccc2O)[C@H](O)[C@@H](O)[C@@H]1O [Sample 1, piceatannol 3'-O-glucoside]
14.31 mg/mL |  | 14.45 mg/mL | OC[C@H]1O[C@@H](Oc2cc(/C=C/c3cc(O)cc(O)c3)ccc2O)[C@H](O)[C@@H](O)[C@@H]1O [Sample 4, piceatannol 3'-O-glucoside]
4.67 mg/mL |  |  | OC[C@H]1O[C@@H](Oc2cc(/C=C/c3cc(O)cc(O)c3)ccc2O)[C@H](O)[C@@H](O)[C@@H]1O [Raw material sample, piceatannol 3'-O-glucoside]
